The record followed here is article PMC11032351, “Epigenetic modulation through BET bromodomain inhibitors as a novel therapeutic strategy for progranulin-deficient frontotemporal dementia” (Scientific Reports, 2024).

One assay deals with GRN mRNA. Kind of assay: qPCR of GRN mRNA in human NPCs (enhancer screen and follow-up). The following applies: 24 h; for increase of GRN mRNA: NPCs. The assay is classed as cell-based. As to the method:
(§1) All compounds were purchased from commercial vendors. All compounds were made at 1000 × stocks in DMSO (Sigma Aldrich #D2438), except for sodium valproate, which was dissolved in ddH2O. NPCs and neurons were generated and maintained as described above. For treatment, the stock compounds were diluted 1:1000 in NPC media (final DMSO concentration 0.1%), which was then applied to confluent NPCs or 18-day differentiated neurons derived from confluent NPC cultures for indicated time periods.
RNA was generated from each well of a 6-well treated plate of NPCs or neurons. First, media from each well was aspirated, and washed with 1 mL of dPBS. Wells were then lysed with 1 mL TRIzol Reagent (ThermoFisher #11,596,026). Wells were then incubated at room temperature for 5 min, and then RNA was extracted using the DirectZol RNA MiniPrep Kit (Zymo Research #R2052). RNA was stored at − 80 °C until further use. cDNA was generated using the High-Capacity cDNA synthesis Kit with RNase inhibitor (ThermoFisher #4,368,814) using 1000–1200 ng RNA per reaction. cDNA was either used immediately or stored at -20 °C until use, where it was then diluted 1:4 with DNase/RNase-free water (Invitrogen #10,977–015).
qPCR was conducted using the Roche 480 Light Cycler in a 384-well plate. To each well was added 5 μL of TaqMan 2X Gene Expression Master Mix (ThermoFisher #4,369,510), 0.5 μL of 20X TaqMan primer probe (ThermoFisher, GRN: Hs00963707_g1, GAPDH: Cat.#432924E), 0.5 μL of DNase/RNase-free H2O, and 4 μL of above diluted cDNA. Results were normalized to GAPDH, and replicate mean values and standard error of the mean are reported.
A general note: Real-time PCR tracks product formation cycle by cycle.

Assay [1] has as its system PGRN protein levels. Description: Immunoblotting of PGRN protein in human NPCs. The assay is classed as cell-based. The following applies: 24 h, immunoblot. How it is done: as §1
Cell pellets were collected from each well of a 6-well plate (or lysed directly in-well for 24-well plates), lysed in radio immunoprecipitation assay (RIPA) buffer (Boston BioProducts #BP-115) with EDTA-free protease inhibitors (Sigma Aldrich #4,693,159,001) and a phosphatase inhibitor cocktail (Sigma Aldrich #P5726) and nutated at 4 °C for 15–30 min. Lysates were clarified via centrifugation at > 14,000 rcf at 4 °C for > 10 min and the supernatants were collected. Protein quantification was done with the Pierce bicinchoninic assay (BCA) (Thermo Fisher #23,227). Lysates were then stored between − 20 and − 80 °C until ready for use. […]
(§2) In probing for PGRN, proteins were separated on NuPAGE 4–12% Bis–Tris gels (ThermoFisher #NP0335BOX) in MOPS SDS Running buffer (ThermoFisher #NP0001). […] Protein quantification was done with ImageJ and normalized to GAPDH.
Background: Immunoblotting shows a protein as a band on a membrane.

In assay [2] the test system is PGRN protein levels. Description: Immunoblotting of PGRN protein in 18-day differentiated neurons. To be noted: 24 hours, immunoblot. It is filed as cell-based, human. As to the method:
NPCs were seeded at 0.5 × 10^6 cells per well in a poly-ornithine/laminin single coated 6-well plate in 2 mL NPC media with above growth factors. Cells were allowed to incubate at 37 °C for 48–72 h to grow to confluency. After reaching confluency, the media was aspirated, and cells were incubated in NPC media without growth factors for the indicated timeframes, with media changes every 3–4 days.
All compounds were purchased from commercial vendors. All compounds were made at 1000 × stocks in DMSO (Sigma Aldrich #D2438), except for sodium valproate, which was dissolved in ddH2O. NPCs and neurons were generated and maintained as described above. […]
Cell pellets were collected from each well of a 6-well plate (or lysed directly in-well for 24-well plates), lysed in radio immunoprecipitation assay (RIPA) buffer (Boston BioProducts #BP-115) with EDTA-free protease inhibitors (Sigma Aldrich #4,693,159,001) and a phosphatase inhibitor cocktail (Sigma Aldrich #P5726) and nutated at 4 °C for 15–30 min. […] Protein quantification was done with the Pierce bicinchoninic assay (BCA) (Thermo Fisher #23,227). Lysates were then stored between − 20 and − 80 °C until ready for use. […]
as §2

The test system of assay [3] is PGRN protein levels. Kind of assay: PGRN quantification (Jess) in GRN R493X/+ NPCs. The assay is classed as cell-based, human. To be noted: 24 h. As to the method: (§3) PGRN capillary gel electrophoresis experiments were performed using Jess (Bio-Techne) and data were processed and analyzed using Compass for Simple Western software (version 6.0). Runs were conducted using EZ Standard Pack 1 12–230 kDa (Bio-Techne PS-ST01EZ-8), 12–230 kDa pre-filled plates (PS-PP03), 12–230 kDa separation module (SMW004), anti-rabbit HRP detection (DM-001), RePlex (RP-001), and total protein detection modules (DM-TP01, biotin labeling reagent 042-973) according to the manufacturer’s instructions, and with anti-PGRN primary (Abcam ab208777) diluted 1:50 in milk-free antibody dilution buffer (043–524). The following run settings were used for each experiment: separation time: 25 min, separation voltage: 375 V, RePlex purge time: 30 min, biotin labeling time: 30 min, antibody diluent time: 5 min, primary antibody time: 30 min, secondary antibody time: 30 min, total protein HRP time: 30 min. All intensity quantifications are normalized to the total protein assay quantification unless otherwise indicated.
(§4) For GRN^R493^X/+ NPCs, cells were grown to confluency in 6-well plates according to the above NPC culturing procedure. To each well was directly added 2 µL of 100 µM panobinostat, […], or DMSO only to produce final in-well concentrations of 100 nM or 1 µM, respectively (0.1% DMSO final concentration). […]

A further assay relates to PGRN-Luc. Kind of assay: HMC3 PGRN-luciferase reporter assay. It is filed as cell-based, human. The following applies: HMC3 PGRN-Luc cells, 20 h. As to the method:
HMC3 PGRN-Luc cells were trypsinized from confluent T-75 flasks and re-suspended in HMC-3 media at 150,000–200,000 cells/mL. 30 µL of cell suspension was then seeded onto each well of black, 384-well clear-bottom plates (Corning 3712) using the Multidrop Combi (Thermo Fisher). Cells were allowed to adhere to plates in the incubator at 37 °C/5% CO2 for 6–8 h. After 6–8 h, compounds were added to each well using the D300e (Tecan) compound dispenser, and all wells were DMSO-normalized (0.3%). Cells were allowed to incubate with compounds for indicated timeframes.
Plates were removed from the incubator and allowed to cool to RT. 15 µL of media was removed from each well using a multichannel pipette and added to separate Corning 3712 plates for a read of “secreted” PGRN. To both the media-containing plates as well as the cell-containing plates (with 15 µL media remaining) is then added 15 µL of active luminescence reagent (Thermo 18,636) which was generated according to manufacturer’s instructions. Plates were allowed to nutate at RT for 15 min prior to reading using the EnVision (PerkinElmer). For calculation of the internal PGRN-Luc signal, the secreted signal (15 µL media) was subtracted from the signal of the cell-containing plates (with 15 µL media remaining). For “total” PGRN-Luc signal, a sample of media was not aliquoted into a separate plate, and instead, 30 µL of active luminescence reagent was added directly to each well.
For the mivebresib and panobinostat time-course experiment, the above procedure was followed, with the exception that cells were seeded at 66,600 cells/mL in 30 µL media, and allowed to grow overnight prior to compound addition for the indicated timeframes.
On the technique in general: In a reporter assay the amount or activity of a reporter protein is the signal.

For assay [4], the system named is PGRN protein levels. Kind of assay: PGRN quantification (Jess) in GRN R493X/+ 14-day differentiated neurons. It is filed as cell-based, human. To be noted: GRN R493X/+ 14-day growth factor differentiated neurons, 24 h. How it is done: as §3, §4

With `Cc1sc2c(c1C)C(c1ccc(Cl)cc1)=N[C@@H](CC(=O)OC(C)(C)C)c1nnc(C)n1-2` [(+)-JQ1], the “increase of GRN mRNA” value in the assay on GRN mRNA (1 µM) is given as ~ 2.5 fold. In the assay on PGRN protein levels [1] (1 µM), the PGRN protein levels entry was “substantially increased PGRN protein levels”. Moreover, in the assay on PGRN protein levels [2] (1 µM), the PGRN expression result was “can enhance PGRN expression”.
Consider `COc1ccccc1S(=O)(=O)Nc1ccc2c(c1)CN(C)C(=O)N2` [PFI-1], for which, in the assay on GRN mRNA (10 µM), the “increase of GRN mRNA” value is ~ 2.5 fold. In addition, in the assay with PGRN protein levels [1] (10 µM), the PGRN protein levels result is “substantially increased PGRN protein levels”. The PGRN expression entry in the assay on PGRN protein levels [2] (10 µM) is listed as “can enhance PGRN expression”.
Take `Cc1[nH]c2ccccc2c1CCNCc1ccc(/C=C/C(=O)NO)cc1` [Panobinostat, panobinostat]: the “GRN Fold-change (Norm. to GAPDH) ± Std. Error” value in the assay with GRN mRNA (human NPCs, dose 1 µM, relative to DMSO) was found to be 3.08 ± 0.35. For the same compound, the PGRN protein levels result with PGRN protein levels [3] and with PGRN protein levels [4] was “rescues PGRN haploinsufficiency” each time. Besides, the “enhancement of internal PGRN-Luc signal” value in the assay with PGRN-Luc is “able to enhance both internal and secreted PGRN at sub-µM concentrations”. Also, in the assay with PGRN-Luc, the “enhancement of secreted PGRN-Luc signal” value was “able to enhance both internal and secreted PGRN at sub-µM concentrations”.
